Results on 2 compounds are retold here after BindingDB's records for patent US11802133 (Hoffmann-La Roche, 2023).

One may read the IC50 as the concentration that inhibits the measured activity by half. Lower therefore signals greater potency in that assay.

The experiment concerns the target T1, Monoglyceride lipase (Homo sapiens, UniProt Q99685).
T1 sequence (Q99685 whole entry): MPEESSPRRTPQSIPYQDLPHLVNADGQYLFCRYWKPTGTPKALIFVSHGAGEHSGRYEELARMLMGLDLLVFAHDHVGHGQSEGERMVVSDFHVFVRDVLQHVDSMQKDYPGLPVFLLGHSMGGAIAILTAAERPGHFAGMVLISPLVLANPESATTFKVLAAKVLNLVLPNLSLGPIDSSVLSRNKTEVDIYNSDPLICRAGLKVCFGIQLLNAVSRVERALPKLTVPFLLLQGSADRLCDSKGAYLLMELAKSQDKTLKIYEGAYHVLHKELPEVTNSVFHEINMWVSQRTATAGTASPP
Description: MAGL Inhibitory Activity Assay. As for the experimental part:
The plate was shaked for 1 min at 2000 rpm (Variomag Teleshake) and then incubated for 15 min at RT. […] The final concentrations in the assay were 1 nM MAGL and 300 μM 4-Nitrophenylacetate. […] A second measurement was then done after incubation for 80 min at RT. From the two measurements, the slope was calculated by subtracting the first from the second measurement.

As to `O=C1CO[C@H]2CCN(C(=O)N3CC(OCc4cccc(OC(F)(F)F)c4)C3)C[C@H]2N1` [US11802133, Example 226], the midpoint of inhibition, the IC50, lay at 45 nM.

In the case of `O=C1CO[C@H]2CCN(C(=O)N3CC(CCc4ccc(O)cc4C(F)(F)F)C3)C[C@H]2N1` [US11802133, Example 293], the IC50 amounted to 30 nM.
